# In ChEMBL document CHEMBL1201862, “PubChem BioAssay data set” (2004):
# Calls of active or inactive are those of the source.
# Assays:
# Nonstructural protein 1 = Nonstructural protein 1 (Influenza A virus, UniProt Q194T2); format: functional, Influenza A virus (A/California/07/2009(H1N1))
# cells [1] = format: functional, cell-based
# cells [2] = format: functional, cell-based; remark: listed apart in the source
# [3] = target: Voltage-dependent T-type calcium channel subunit alpha-1H (Homo sapiens, UniProt O95180); format: functional;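 also: channel activity triggered by adding a high calcium stimulation buffer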
# cells [4] = format: functional
# [5] = blockers of HIV-1 ZM109 envelope-driven cell-cell fusion – HeLa effector, CEM target cells, luciferase, cherry-pick, dose response (AID 652058); format: functional, cell-based;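 also: luciferase signal from HIV-1 Env mediated cell-cell fusion of effector and target cells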
# [6] = Luminescence Cell-Based Dose Response HTS to Identify Inhibitors of 5'UTR Stem-Loop Driven Prion Protein mRNA Translation in H4 Neuroglioblastoma Cells. [Related pubchem assays: 1827 (Project Summary), 1813 (Primary HTS)]; format: functional
# [7] = luciferase reporter signal suppression in cells – H4 neuroglioma cells, luminescence, dose response (AID 1990); format: functional, cell-based
# [8] = blockers of HIV-1 envelope-mediated cell-cell fusion – cherry-pick, dose response (AID 652057); format: functional, cell-based
# [9] = off-target signal loss in HeLa-CEM21 co-culture – HeLa F-luc CTL cells, cherry-picked, counter-screen for HIV-1 Env fusion inhibitor project, dose response (AID 652040); format: functional, cell-based;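 also: potency for signal decrease marking cytotoxic or nonspecific inhibition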
# [10] = HIV-1 AD8 envelope cell-cell fusion blockers – cherry-pick, dose response (AID 652062); format: functional, cell-based;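 also: luciferase signal from cell-cell fusion driven by HIV-1 clade B AD8 Env; potency is for inhibitors of fusion seen as a drop in luminescence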
# [11] = target: T1, Histone-lysine N-methyltransferase NSD2 (Homo sapiens, UniProt O96028); format: biochemical
# T1 sequence (O96028 whole entry): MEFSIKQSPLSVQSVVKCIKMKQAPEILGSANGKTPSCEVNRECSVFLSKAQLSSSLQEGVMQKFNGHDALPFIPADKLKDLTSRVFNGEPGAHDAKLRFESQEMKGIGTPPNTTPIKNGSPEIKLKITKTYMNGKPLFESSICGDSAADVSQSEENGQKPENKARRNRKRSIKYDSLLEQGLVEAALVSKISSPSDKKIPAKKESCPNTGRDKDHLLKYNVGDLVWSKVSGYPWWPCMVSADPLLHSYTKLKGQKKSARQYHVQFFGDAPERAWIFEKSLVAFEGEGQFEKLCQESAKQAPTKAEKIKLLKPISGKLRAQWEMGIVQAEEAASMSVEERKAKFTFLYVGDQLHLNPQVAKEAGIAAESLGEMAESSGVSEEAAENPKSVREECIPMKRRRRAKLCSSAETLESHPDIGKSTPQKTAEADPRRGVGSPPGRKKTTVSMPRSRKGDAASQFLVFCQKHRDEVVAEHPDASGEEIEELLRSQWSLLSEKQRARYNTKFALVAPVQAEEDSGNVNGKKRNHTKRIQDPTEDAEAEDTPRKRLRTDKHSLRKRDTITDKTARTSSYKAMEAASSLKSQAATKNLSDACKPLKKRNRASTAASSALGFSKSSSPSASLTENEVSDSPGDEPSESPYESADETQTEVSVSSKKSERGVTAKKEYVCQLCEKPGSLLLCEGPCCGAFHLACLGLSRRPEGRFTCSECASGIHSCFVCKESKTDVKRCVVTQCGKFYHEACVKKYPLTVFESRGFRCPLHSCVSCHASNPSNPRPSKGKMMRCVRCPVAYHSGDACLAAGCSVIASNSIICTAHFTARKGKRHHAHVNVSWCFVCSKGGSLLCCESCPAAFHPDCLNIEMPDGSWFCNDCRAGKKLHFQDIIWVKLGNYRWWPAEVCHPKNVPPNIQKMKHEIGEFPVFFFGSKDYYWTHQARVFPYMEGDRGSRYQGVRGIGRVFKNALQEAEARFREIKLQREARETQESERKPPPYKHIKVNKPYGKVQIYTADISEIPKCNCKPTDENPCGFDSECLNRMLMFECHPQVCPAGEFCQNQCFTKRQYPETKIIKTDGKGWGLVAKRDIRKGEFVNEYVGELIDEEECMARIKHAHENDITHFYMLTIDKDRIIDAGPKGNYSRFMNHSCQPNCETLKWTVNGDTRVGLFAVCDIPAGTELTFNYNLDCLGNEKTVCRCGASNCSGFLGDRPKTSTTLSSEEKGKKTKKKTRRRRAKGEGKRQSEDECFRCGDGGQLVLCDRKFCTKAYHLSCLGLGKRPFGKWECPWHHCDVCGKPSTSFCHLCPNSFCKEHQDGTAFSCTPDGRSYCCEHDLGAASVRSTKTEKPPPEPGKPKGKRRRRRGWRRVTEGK
# Cytochrome P450 2C9 = Cytochrome P450 2C9 (Homo sapiens, UniProt P11712)
# Cytochrome P450 3A4 = Cytochrome P450 3A4 (Homo sapiens, UniProt P08684);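 also: CYP3A4 tested as one member of a cytochrome P450 panel screen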
# [12] = microbe, parasite or virus in culture; format: functional; settings: Mycobacterium tuberculosis
# [13] = blockade of melanocortin 4 receptor signaling – cell-based, plate reader, cherry pick, counter-screen for LGR2 antagonist project, dose response (AID 743444); format: functional;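 also: transfected HEK 293 cells stimulated with alpha-MSH peptide; potency of inhibitors of the alpha-MSH evoked signal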
# [14] = toxicity toward HepG2 liver cells – cell-based, plate reader, cherry-pick, antagonist series, cytotoxicity control, dose response (AID 743416); format: functional
# [15] = target: FAD-linked sulfhydryl oxidase ALR (Homo sapiens, UniProt P55789); experiment: ALR-catalysed DTT oxidation blockers – biochemical, H2O2 detection, luminescence, cherry-pick, dose response (AID 493248)
# [16] = blockers of bursicon-stimulated LGR2 cAMP reporter – cell-based, HEK293, CRE-luciferase reporter, cherry pick, set 2, dose response (AID 743343); format: functional;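 also: transfected cells were stimulated with diluted bursicon conditioned medium after compound addition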
# BJ [17] = experiment: cells; format: functional, cell-based; settings: Homo sapiens
# BJ [18] = experiment: BJ-TERT-LT-ST fibroblast viability loss – cell-based, RAS-independent, luminescence, dose response (AID 1935); format: functional; settings: Homo sapiens;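 also: BJ fibroblasts immortalized with TERT plus LT and ST oncogenes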
# [19] = DRD fibroblast viability loss – cell-based, non-viral oncogenic, luminescence, dose response (AID 1934); format: functional; settings: Homo sapiens
# BJ [20] = experiment: BJ-TERT fibroblast viability loss – cell-based, RAS-independent, luminescence, dose response (AID 1933); format: functional; settings: Homo sapiens
# [21] = Luminescence Cell-Based Dose Retest to Confirm Inhibitors of Cancer Stem Cells. [Related pubchem assays (depositor defined):AID2717, AID2721]; format: functional; settings: Homo sapiens
# Cytochrome P450 2C19 = Cytochrome P450 2C19 (Homo sapiens, UniProt P33261); experiment: Cytochrome panel assay with activity outcomes. Panel member name: p450-cyp2c19 Compounds with AC50 equal or less than 10 uM are considered active; format: functional; settings: read-out: AC50
# Cytochrome P450 2D6 = Cytochrome P450 2D6 (Homo sapiens, UniProt P10635);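 also: CYP2D6 member of a cytochrome P450 panel assay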
# H9c2 = experiment: cells; format: functional, cell-based; settings: Rattus norvegicus, H9c2, Myocardium;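 also: confirmatory concentration-response retest of ultra-high-throughput screening hits for modulation of myocardial damage; cell death induced by hydrogen peroxide oxidative stress; compound pretreatment for 60 min then peroxide exposure for 2 h; potency is for protecting the cells against peroxide damage rather than for killing them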
# Chain of Voltage-dependent T-type calcium channel subunit alpha-1H (O95180 whole entry): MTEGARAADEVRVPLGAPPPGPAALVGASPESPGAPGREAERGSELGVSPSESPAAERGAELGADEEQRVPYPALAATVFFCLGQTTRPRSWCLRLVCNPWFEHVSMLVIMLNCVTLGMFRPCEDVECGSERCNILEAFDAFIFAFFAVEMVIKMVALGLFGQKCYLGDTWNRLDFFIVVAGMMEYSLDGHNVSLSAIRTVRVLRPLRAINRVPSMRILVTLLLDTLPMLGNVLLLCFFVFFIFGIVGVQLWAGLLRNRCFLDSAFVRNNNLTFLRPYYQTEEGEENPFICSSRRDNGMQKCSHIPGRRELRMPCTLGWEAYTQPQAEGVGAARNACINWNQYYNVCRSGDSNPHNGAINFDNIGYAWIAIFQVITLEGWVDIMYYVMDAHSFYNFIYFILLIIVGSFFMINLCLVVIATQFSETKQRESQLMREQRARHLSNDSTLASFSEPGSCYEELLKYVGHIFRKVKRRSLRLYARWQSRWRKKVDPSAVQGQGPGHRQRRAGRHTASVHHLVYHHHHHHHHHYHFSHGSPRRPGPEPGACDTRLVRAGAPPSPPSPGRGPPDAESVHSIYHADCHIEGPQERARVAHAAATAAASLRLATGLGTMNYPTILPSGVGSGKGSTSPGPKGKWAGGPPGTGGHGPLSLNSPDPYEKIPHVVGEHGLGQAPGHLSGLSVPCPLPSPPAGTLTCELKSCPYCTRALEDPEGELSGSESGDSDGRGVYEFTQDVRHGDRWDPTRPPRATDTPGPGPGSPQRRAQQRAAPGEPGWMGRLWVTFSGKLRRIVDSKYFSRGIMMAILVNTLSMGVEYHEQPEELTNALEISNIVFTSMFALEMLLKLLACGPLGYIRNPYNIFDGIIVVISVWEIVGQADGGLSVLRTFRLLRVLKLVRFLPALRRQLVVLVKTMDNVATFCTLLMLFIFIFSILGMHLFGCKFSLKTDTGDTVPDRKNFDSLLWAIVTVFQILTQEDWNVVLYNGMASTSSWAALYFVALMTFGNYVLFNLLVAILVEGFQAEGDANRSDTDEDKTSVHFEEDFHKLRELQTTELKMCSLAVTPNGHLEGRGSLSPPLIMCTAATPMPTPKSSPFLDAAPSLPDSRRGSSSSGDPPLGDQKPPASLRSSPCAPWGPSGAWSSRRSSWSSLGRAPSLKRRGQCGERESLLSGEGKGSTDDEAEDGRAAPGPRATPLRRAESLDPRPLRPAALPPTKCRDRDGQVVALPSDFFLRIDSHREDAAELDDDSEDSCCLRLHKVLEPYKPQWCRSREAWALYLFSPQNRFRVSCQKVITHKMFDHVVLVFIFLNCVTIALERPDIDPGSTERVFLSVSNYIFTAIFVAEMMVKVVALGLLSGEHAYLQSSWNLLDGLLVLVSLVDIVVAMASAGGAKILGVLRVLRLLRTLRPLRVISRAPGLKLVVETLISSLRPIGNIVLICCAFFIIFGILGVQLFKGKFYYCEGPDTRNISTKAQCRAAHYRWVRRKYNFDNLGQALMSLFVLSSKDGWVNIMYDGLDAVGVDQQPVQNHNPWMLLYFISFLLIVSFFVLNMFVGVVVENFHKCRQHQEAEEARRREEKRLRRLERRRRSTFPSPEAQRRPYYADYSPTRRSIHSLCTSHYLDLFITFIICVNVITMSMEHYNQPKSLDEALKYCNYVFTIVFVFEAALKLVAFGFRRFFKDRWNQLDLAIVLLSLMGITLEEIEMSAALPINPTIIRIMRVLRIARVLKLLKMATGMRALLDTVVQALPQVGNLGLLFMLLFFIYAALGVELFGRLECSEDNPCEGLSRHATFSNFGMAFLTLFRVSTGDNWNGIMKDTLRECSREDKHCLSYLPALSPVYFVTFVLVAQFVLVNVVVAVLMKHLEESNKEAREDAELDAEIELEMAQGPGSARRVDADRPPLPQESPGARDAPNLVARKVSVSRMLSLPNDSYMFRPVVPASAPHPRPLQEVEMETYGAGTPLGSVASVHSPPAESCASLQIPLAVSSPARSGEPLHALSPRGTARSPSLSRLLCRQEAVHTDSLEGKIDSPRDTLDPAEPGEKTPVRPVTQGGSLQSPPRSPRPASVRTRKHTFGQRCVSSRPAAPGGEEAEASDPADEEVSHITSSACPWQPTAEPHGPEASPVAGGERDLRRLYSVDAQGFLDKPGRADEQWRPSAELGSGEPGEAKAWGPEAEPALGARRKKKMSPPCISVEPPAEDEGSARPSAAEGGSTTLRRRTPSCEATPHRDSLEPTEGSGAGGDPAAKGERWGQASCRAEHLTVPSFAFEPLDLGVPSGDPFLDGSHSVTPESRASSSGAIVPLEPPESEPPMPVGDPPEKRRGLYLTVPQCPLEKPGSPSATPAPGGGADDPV
# Chain of Cytochrome P450 2C9 (P11712 whole entry): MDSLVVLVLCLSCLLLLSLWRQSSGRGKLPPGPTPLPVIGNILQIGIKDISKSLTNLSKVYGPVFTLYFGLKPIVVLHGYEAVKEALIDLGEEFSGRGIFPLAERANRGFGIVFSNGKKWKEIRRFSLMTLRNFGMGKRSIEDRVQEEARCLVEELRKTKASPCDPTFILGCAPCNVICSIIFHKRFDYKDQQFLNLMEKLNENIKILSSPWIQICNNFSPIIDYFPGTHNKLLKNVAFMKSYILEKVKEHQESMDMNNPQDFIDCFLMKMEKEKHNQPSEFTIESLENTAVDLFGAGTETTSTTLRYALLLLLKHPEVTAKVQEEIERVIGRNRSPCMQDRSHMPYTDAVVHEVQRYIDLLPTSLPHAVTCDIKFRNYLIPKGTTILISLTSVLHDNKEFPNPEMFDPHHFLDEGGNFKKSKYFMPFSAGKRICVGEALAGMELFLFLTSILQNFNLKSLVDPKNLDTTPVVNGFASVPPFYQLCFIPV
# Chain of Cytochrome P450 2C19 (P33261 whole entry): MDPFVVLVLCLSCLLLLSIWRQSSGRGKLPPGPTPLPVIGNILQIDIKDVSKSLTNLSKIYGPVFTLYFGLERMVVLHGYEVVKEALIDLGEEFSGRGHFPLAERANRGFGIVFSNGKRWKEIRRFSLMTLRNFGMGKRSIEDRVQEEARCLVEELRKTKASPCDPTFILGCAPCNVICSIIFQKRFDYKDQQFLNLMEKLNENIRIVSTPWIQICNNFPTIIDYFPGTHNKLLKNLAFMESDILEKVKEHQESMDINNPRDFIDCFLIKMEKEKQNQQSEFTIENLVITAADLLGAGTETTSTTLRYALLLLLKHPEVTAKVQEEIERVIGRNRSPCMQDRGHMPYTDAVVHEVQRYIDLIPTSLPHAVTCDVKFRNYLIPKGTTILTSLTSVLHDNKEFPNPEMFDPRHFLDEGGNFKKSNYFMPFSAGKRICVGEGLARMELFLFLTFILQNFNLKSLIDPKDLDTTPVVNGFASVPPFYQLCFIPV
# Chain of Cytochrome P450 2D6 (P10635 whole entry): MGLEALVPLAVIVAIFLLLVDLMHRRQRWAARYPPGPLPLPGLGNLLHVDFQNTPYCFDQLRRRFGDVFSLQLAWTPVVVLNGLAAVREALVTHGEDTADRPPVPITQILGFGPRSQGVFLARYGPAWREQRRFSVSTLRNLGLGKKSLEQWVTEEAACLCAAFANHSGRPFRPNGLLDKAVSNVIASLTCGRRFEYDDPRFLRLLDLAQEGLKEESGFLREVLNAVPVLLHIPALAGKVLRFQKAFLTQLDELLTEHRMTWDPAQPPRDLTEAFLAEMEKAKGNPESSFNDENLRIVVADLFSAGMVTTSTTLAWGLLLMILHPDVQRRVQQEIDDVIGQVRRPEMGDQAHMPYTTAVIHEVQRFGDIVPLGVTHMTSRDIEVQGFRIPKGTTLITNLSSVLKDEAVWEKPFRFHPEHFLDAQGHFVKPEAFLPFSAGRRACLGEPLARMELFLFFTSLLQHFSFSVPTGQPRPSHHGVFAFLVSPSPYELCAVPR
# Chain of Nonstructural protein 1 (Q194T2 whole entry): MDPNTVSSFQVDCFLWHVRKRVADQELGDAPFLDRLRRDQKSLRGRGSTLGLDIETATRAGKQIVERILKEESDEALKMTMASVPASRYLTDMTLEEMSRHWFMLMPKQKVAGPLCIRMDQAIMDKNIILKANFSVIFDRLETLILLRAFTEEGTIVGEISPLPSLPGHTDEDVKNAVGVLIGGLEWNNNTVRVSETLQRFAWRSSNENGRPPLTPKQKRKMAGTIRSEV
# Chain of Cytochrome P450 3A4 (P08684 whole entry): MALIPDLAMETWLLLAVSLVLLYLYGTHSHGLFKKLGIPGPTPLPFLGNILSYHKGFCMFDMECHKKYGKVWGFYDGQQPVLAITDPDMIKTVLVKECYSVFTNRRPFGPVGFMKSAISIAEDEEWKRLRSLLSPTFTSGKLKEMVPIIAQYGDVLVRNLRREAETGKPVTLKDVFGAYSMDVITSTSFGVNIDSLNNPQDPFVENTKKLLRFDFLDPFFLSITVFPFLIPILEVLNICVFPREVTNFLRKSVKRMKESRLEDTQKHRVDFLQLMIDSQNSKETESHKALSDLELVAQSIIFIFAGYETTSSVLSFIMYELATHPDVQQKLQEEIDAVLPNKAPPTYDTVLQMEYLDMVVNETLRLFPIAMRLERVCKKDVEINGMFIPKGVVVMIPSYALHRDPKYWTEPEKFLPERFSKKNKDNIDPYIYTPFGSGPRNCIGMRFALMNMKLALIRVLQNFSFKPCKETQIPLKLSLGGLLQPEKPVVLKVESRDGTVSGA
# Chain of FAD-linked sulfhydryl oxidase ALR (P55789 whole entry): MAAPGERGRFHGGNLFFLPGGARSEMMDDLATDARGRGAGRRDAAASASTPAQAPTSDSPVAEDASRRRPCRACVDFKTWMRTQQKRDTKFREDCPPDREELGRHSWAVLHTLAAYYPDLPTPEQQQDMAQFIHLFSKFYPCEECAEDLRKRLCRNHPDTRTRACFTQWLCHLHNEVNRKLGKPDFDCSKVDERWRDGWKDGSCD
structure (smiles),measurement,setting,value
O=S(=O)(c1ccc(NC(=S)NN=C2CCCCC2)cc1)N1CCOCC1,IC50,Nonstructural protein 1,24.8 µM (active)
Cc1[nH]c2ccccc2c1CN1CCc2ccccc2C1,IC50,cells [1],> 29.9 µM (inactive)
same,EC50,cells [2],> 29.9 µM (inactive)
Cc1ccc(-c2noc(CCC(=O)Nc3cccc(C#N)c3)n2)cc1,EC50,[3],2.84 µM (active)
same,IC50,cells [4],19.9 µM (active)
C=CCc1cc(C)ccc1OCC(O)CN1CCN(c2ccccc2)CC1 (centres undefined),EC50,[3],8.33 µM (active)
COc1ccc(NC(=O)c2cc(CC(C)C)nc3ccccc23)cc1,AC50,[5],< 0.26 µM (active)
same,EC50,[6],> 120 µM (not active)
same,EC50,[7],> 120 µM (not active)
same,AC50,[8],0.655 µM (active)
same,AC50,[9],1.06 µM (active)
same,AC50,[10],1.11 µM (active)
CC(NC1=NCCS1)c1ccccc1 (centres undefined),IC50,cells [1],> 29.9 µM (inactive)
same,EC50,cells [2],> 29.9 µM (inactive)
CNCc1ccccc1Sc1ccc(OC)c(OC)c1,AC50,[11],> 20 µM (inactive)
COc1ccc(Oc2ncc3nc(-c4cn(C)c5ccccc45)c(=O)n(C)c3n2)cc1,AC50,Cytochrome P450 2C9,inconclusive
same,AC50,Cytochrome P450 3A4,15.8 µM (inconclusive)
Cc1nc2cnc(N(C)C)nc2n(Cc2ccc(F)cc2)c1=O,AC50,Cytochrome P450 2C9,inconclusive
CC1(C)Cc2c(C#N)c(N3CCN(C(=O)c4ccccc4)CC3)nc(Cc3ccccc3)c2CO1,CC50,[12],39 µM (active)
CN(C)c1ccc(C(=O)Nc2nc3c(s2)CCCC3)cc1,AC50,[13],11.4 µM (active)
same,AC50,[14],51.1 µM (active)
same,AC50,[15],0.188 µM (active)
same,AC50,[16],8.81 µM (active)
CCOc1ccccc1NC1=C(Cl)C(=O)N(Cc2ccccc2)C1=O,EC50,BJ [17],> 150 µM (not active)
same,EC50,BJ [18],> 150 µM (not active)
same,EC50,[19],> 150 µM (not active)
same,EC50,BJ [20],> 150 µM (not active)
Clc1ccc(CSc2nnnn2-c2ccc3c(c2)OCO3)c(Cl)c1,EC50,[3],9.79 µM (active)
same,AC50,[21],13.1 µM (active)
CCCn1c2c(c(O)c(C(=O)NCCCN(CC)CC)c1=O)CCCC2,AC50,[11],> 20 µM (inactive)
COc1ccccc1CNc1cc(-c2cccc(NS(C)(=O)=O)c2)ncn1,AC50,Cytochrome P450 2C9,inconclusive
same,AC50,Cytochrome P450 2C19,20 µM (inconclusive)
CCC(=O)Nc1cccc(-c2nnc(-c3cccc(NC(=O)CC)c3)o2)c1,AC50,Cytochrome P450 2C9,inconclusive
same,AC50,Cytochrome P450 2D6,17.8 µM (inconclusive)
same,IC50,H9c2,> 79 µM (inactive)
Cc1nc2ncnn2c(N2CCCC(C(=O)Nc3ccc4c(c3)CCC4)C2)c1C (centres undefined),AC50,[5],17.1 µM (active)
same,AC50,[8],3.21 µM (active)
same,AC50,[9],3.66 µM (active)
same,AC50,[10],8.01 µM (active)
